Source: patent US10233205B2, “Magnetic resonance imaging contrast agent capable of detecting hydrogen peroxide and reducing reactive oxygen species” (Auburn University, priority 2015, dated 2019)
Values belong to the molecule of their own block, whether it stands above or below them.

Columns and labels:
[1] = Competitive binding assay with TPEN for log(K) of ligand binding to Mn(II); assay type: physicochemical
Protocol: The log(K) was measured via a competitive binding assay between N,N,N′,N′-tetrakis(2-pyridylmethyl)ethylenediamine (TPEN) and the ligand (L). Various amounts of TPEN were added to a solutions of the ligand in MeCN-d3 and D2O.
The log(K) for the complexation of H2qtp1 to Mn(II) was estimated through a titration with the metal-scavenging agent TPEN (N,N,N′,N′-tetrakis(2-pyridinylmethyl)ethylenediamine, log K=10.3). The ratios of free TPEN to free ligand were assessed by ^1H NMR.
Given the known log(K) of 10.3 for TPEN's binding to Mn(II), a log(K) of 10.7 was thereby assigned for the coordination of H2qtp1 to Mn(II). […] The log(K) of 10.7 is nearly identical to the 10.6 value estimated for a related ligand from our laboratory that contains a para-methylphenol group in place of the H2qtp1's quinol.

[2] = Stability in aerobic solution / to pH; assay type: physicochemical; settings: pH >10
Protocol: Over this time, collected UV/vis spectra (FIGS. 2 & 3) display changes in the region between 200 nm and 300 nm which are consistent with the oxidation of the quinol to a para-quinone. Past 24 h, the solution begins to turn brown, consistent with oxidation of the manganese to Mn(III) and/or Mn(IV). For the spectrophotometric analysis, the Fe(ClO4)2 solution was added to a MeCN solution containing 0.10 mM [Mn(Hptp1)(MeCN)]^2+; the mixture was scanned at 0 min (dashed red), 30 min (dashed pink), and 60 min (dashed blue). […] At 15 h, approximately 11% of the Mn(II) has been displaced by Fe(II) as indicated by data in FIG. 3.
The stability of 3 to air and adventitious metal ions was assessed primarily by UV/vis spectroscopy. […] Complex 3, however, is susceptible to metal exchange. When equimolar amounts of 3 and Fe(ClO4)2 are mixed in MeCN, 80% of the Mn(II) is replaced by Fe(II) by 3 h.

[3] = Potentiometric pH titrations, Hyperquad model; settings: for log(β): Hyperquad model, 100 mM KCl, 25° C.
From the text: (§2) The speciation in water was more rigorously probed with potentiometric pH titrations. […] The quinolic protons likely deprotonate at higher pH values (pKa˜10), but we were unable to obtain the high pH data necessary to confirm this.
(§3) The data were fit to a model containing the protonated forms of the free ligand and four Mn(II) complexes with the ligand in various protonation states: [Mn(H2qtp2)], [Mn(H3qtp2)]^+, [Mn(H4qtp2)]^2+, and [Mn(H4qtp2)]^3+ (Scheme 4).

[4] = T1-weighted relaxivity (r1) on 3 T clinical MRI scanner; assay type: physicochemical; settings: no oxidant; 50 mM HEPES pH 7.00, 3 T, 25° C.
From the text: All MRI data were collected at the Auburn University MRI Research Center (Auburn, Ala.) on a Siemens Verio open-bore 3-T MRI clinical scanner. A 15-channel knee coil was used to simultaneously image 12-26 samples. An inversion recovery (IR) sequence was used that featured a non-selective adiabatic inversion pulse followed by a slice-selective gradient recalled echo (GRE) readout after a delay period corresponding to the inversion time (TI).^1-2 The GRE was a saturation readout, such that only one line of k-space was acquired per repetition time (TR). This method was selected to maximize both the signal strength and the accuracy of the T1 estimates. Specific imaging parameters were as follows: TR was set to 4 s, TI was varied from 4.8 to 2500 ms over 37 steps, the echo time (TE) was set to 3.6 ms, the flip angle equaled 90°, averages=1, slice thickness=5 mm, field of view=140×140 mm, matrix=128×128, resulting in a pixel size of 1.1×1.1×5.0 mm. All samples were run in 50 mM solutions of HEPES in water, buffered to pH 7.0 and kept at […]. The manganese content was systematically varied from 0.10 to 1.00 mM. The inverses of the T1 values were plotted versus the concentration of Mn(II) to obtain r1 values. All reported r1 values are averages from the results of two separate series of experiments. Each series of experiments used a different batch of 1.
Image analysis was performed using custom Matlab programs (Mathworks, Natick, Mass.). The initial TI=4.8 ms image served as a baseline to determine circular region of interest (ROI) boundaries for each sample; from these, the mean pixel magnitudes for each ROI were calculated. For each of the 36 subsequent TI images, the same ROI boundaries were applied and the mean pixel magnitude calculations were repeated. This gave consistent ROI spatial definitions and a corresponding time course of magnitudes for each of the samples over all the TI time points. Each sample's complex phase was used to correct the magnitude polarity to produce a complete exponential T1 inversion recovery curve. The Nelder-Mead simplex algorithm^3 was applied to each sample's exponential curve to estimate its corresponding T1 value.
(§1) For the relaxivity measurements, all samples were run in 298 K aqueous solutions containing 50 mM HEPES buffered to pH 7.00, using a 3 T field provided by a clinical MRI scanner. The data were fit to the indicated linear equations; the y-intercepts were within error of 1/T1 measurements associated with two control samples that contained no Mn(II): (A) 10 mM H2O2 in 50 mM HEPES buffer and (B) pure 50 mM HEPES buffer (both 0.46 s^−1).
as §1, with “All” for “For the relaxivity measurements, all”, “s^−1). The oxidation of 1 by 2,3-dichloro-5,6-dicyano-1,4-benzoquinone (DDQ) occurred in CH2Cl2. After the reaction occurred, the 2,3-dichloro-5,6-dicyanoquinol product was removed via filtration, the CH2Cl2 was removed, and the sample was dissolve in HEPES buffer for MRI analysis. The other oxidation reactions occurred entirely in HEPES buffer.” for “s^−1).”
The capability of 3 to serve as a MRI contrast agent was assessed with a 3 T clinical MRI scanner. All samples were run in 298 K aqueous solutions containing 50 mM HEPES buffered to pH 7.00, using a 3 T field provided by a clinical MRI scanner. All samples were prepared under air. The oxidized samples were prepared by directly adding H2O2 to solutions of 3 in aqueous solutions buffered to pH 7.0. The oxidation reactions were allowed to proceed for 30 min at 298 K before the T1 measurements were taken. […]

[5] = conditions identical to those used for 3; cited from earlier work
Solubility in water = assay type: physicochemical; settings: pure H2O

From the text for physchem: as §2, §3

Molecule: Oc1ccc(O)c(CN(CCN(Cc2ccccn2)Cc2ccccn2)Cc2ccccn2)c1 [Complex H2qtp1, N-(2,5-Dihydroxybenzyl)-N,N′,N′-tris(2-pyridinylmethyl)-1,2-ethanediamine]
- equilibrium constant for [Mn(L)(MeCN)]^2+ + TPEN → [Mn(TPEN)]^2+ + L ([1]; in both water and MeCN): 0.4
- log(K) for the coordination of ligand to Mn(II) ([1]; titration with TPEN, 1H NMR, water and MeCN): 10.7

Molecule: O.O=C([O-])CN(CCN(CC(=O)[O-])CC(=O)[O-])CC(=O)[O-].[Mn+2] [[Mn(EDTA)(H2O)]^2−, reference compound]
- r1 (T1-weighted relaxivity) [4]: 1.73 mM⁻¹ s⁻¹

Molecule: O.O.O.O.O.O.[Mn+2] [[Mn(H2O)6]^2+]
- r1, previously found [5]: about 5.3 mM^−1s^−1

Molecule: cis-Dibromo(N,N′-bis(2,5-benzoquinone)-N,N′-bis(2-pyridinylmethyl)-1,2-ethanediamine)manganese(II) [Complex 4]
- solubility in water (Solubility in water): poor and poor solubility

Results, then the molecule that gave them:

- pKa (physchem; pKL1 (free ligand pKa)): 4.47
- pKa (physchem; pKL2 (free ligand pKa)): 7.18
- stability of ligand to pH [2]: degrades under basic conditions
- log(β) [3]: 0.00
Molecule: Oc1ccc(O)c(CN(CCN(Cc2ccccn2)Cc2cc(O)ccc2O)Cc2ccccn2)c1 [Complex H4qtp2, N,N′-Bis(2,5-dihydroxybenzyl)-N,N′-bis(2-pyridinylmethyl)-1,2-ethanediamine]

- log(β) [3]: 7.18 (±0.03)
Molecule: Oc1ccc(O)c(CN(CCN(Cc2ccccn2)Cc2cc(O)ccc2O)Cc2ccccn2)c1 [H5qtp2^+]

- log(β) [3]: 11.65 (±0.05)
Molecule: Oc1ccc(O)c(CN(CCN(Cc2ccccn2)Cc2cc(O)ccc2O)Cc2ccccn2)c1 [H6qtp2^2+]

- log(β) [3]: −7.19 (±0.01)
- percent formation of Mn(II) species ([3]; pH 7.0): 40.3%
- percent formation of Mn(II) species ([3]; pH 7.4): 66.2%
Molecule: Oc1ccc2c(c1)CN(Cc1ccccn1)CCN(Cc1ccccn1)Cc1cc(O)ccc1[O][Mn][O]2 [[Mn(H2qtp2)]]
